Measurements from ChEMBL document CHEMBL3045181, “Flufenerim, a novel insecticide acting on diverse insect pests: biological mode of action and biochemical aspects” (2011).
The source made the active and inactive calls. No cut-off for these calls is given here.

Assays:
Bemisia tabaci [1] = test: Insecticidal activity against adult Bemisia tabaci biotype B (sweet potato whitefly) reared on compound-pretreated cotton seedlings assessed as insect mortality at 0.5 mg/L of active ingredient measured 48 hr post compound dose; assay type: functional
Bemisia tabaci [2] = test: Insecticidal activity against adult Bemisia tabaci biotype B (sweet potato whitefly) reared on cotton seedlings assessed as insect mortality at 0.8 mg/L of active ingredient; assay type: functional
Bemisia tabaci [3] = test: Insecticidal activity against adult Bemisia tabaci biotype B (sweet potato whitefly) exposed to 0.1 mg of active ingredient per liter of compound for 30 generations reared on compound pre-treated cotton seedlings assessed as insect mortality at 0.8 mg/L of active ingredient; assay type: functional
Bemisia tabaci [4] = test: Insecticidal activity against adult Bemisia tabaci biotype B (sweet potato whitefly) reared on compound pre-treated cotton seedlings assessed as insect mortality at 20 mg/L of active ingredient measured after 7 days post dose; assay type: functional, organism-based
Bemisia tabaci [5] = test: Insecticidal activity against thiamethoxam-resistant adult Bemisia tabaci ActRQ-G95 reared on compound-pre-treated cotton seedlings assessed as insect mortality; assay type: functional
Spodoptera littoralis [6] = test: Insecticidal activity against Spodoptera littorali first-instar stages grown on compound pre-treated cotton leaves assessed as insect mortality measured 72 hr post compound dose; assay type: functional
Spodoptera littoralis [7] = test: Insecticidal activity against Spodoptera littorali first-instar stages grown on compound pre-treated cotton leaves assessed as insect mortality at 16 mg/L of active ingredient measured up to 4 days post dose; assay type: functional
AChE2 (Bemisia tabaci) = AChE2 (Bemisia tabaci) (UniProt B3SST5); test: Inhibition of AChE in Bemisia tabaci (sweet potato whitefly) homogenates assessed as reduction in acetylthiocholine iodide hydrolysis by Ellman method based colorimetry
Spodoptera littoralis [8] = test: Insecticidal activity against Spodoptera littorali first-instar stages grown on compound pre-treated cotton leaves assessed as insect mortality at 0.5 mg/L of active ingredient measured 72 hr post compound dose; assay type: functional
Bemisia tabaci [9] = test: Insecticidal activity against adult Bemisia tabaci biotype B (sweet potato whitefly) reared on compound pre-treated cotton seedlings assessed as insect mortality under out door conditions at 30 mg/L of active ingredient measured after 2 days post dose; assay type: functional
Bemisia tabaci [10] = test: In-vivo inhibition of Bemisia tabaci (sweet potato whitefly) AChE isolated from white fly feeding on compound-pre-treated cotton leaves for 48 hr assessed as reduction in acetylthiocholine iodide hydrolysis by Ellman method based colorimetry; assay type: functional, organism-based
Spodoptera littoralis [11] = test: Insecticidal activity against Spodoptera littorali first-instar stages grown on compound pre-treated cotton leaves assessed as insect mortality under out door conditions at 16 mg/L of active ingredient measured after 2 days post dose; assay type: functional
Bemisia tabaci [12] = test: Insecticidal activity against adult Bemisia tabaci biotype B (sweet potato whitefly) reared on cotton seedlings assessed as induction of insect mortality; assay type: functional
Bemisia tabaci [13] = test: Inhibition of oviposition of Bemisia tabaci biotype B (sweet potato whitefly) reared on cotton seedlings at 10 mg/L of active ingredient by oviposition nonchoice assay; assay type: functional, organism-based
Myzus persicae [14] = test: Insecticidal activity against Myzus persicae (green peach aphid) first nymphal stages grown on compound pre-treated mustard leaves assessed as insect mortality at 1 mg/L of active ingredient measured 72 hr post compound dose; assay type: functional
Spodoptera littoralis [15] = test: Insecticidal activity against Spodoptera littorali first-instar stages grown on compound pre-treated cotton leaves assessed as insect mortality at 16 mg/L of active ingredient measured after 14 days post dose; assay type: functional
Bemisia tabaci [16] = test: Insecticidal activity against adult Bemisia tabaci biotype B (sweet potato whitefly) reared on compound pre-treated cotton seedlings assessed as insect mortality at 20 mg/L of active ingredient measured up to 4 days post dose; assay type: functional
Bemisia tabaci [17] = test: Inhibition of oviposition of Bemisia tabaci biotype B (sweet potato whitefly) reared on cotton seedlings at 10 mg/L of active ingredient by oviposition choice assay; assay type: functional, organism-based
Myzus persicae [18] = test: Insecticidal activity against Myzus persicae Fluf-RG-15 (green peach aphid) first nymphal stages exposed to 0.1 mg of active ingredient per liter of compound for 15 generations grown on compound pre-treated mustard leaves assessed as insect mortality measured 72 hr post compound dose; assay type: functional
Spodoptera littoralis [19] = test: Insecticidal activity against Spodoptera littorali first-instar stages grown on compound pre-treated cotton leaves assessed as insect mortality at 16 mg/L of active ingredient measured after 7 days post dose; assay type: functional
Spodoptera littoralis [20] = test: Insecticidal activity against Spodoptera littorali first-instar stages grown on compound pre-treated cotton leaves assessed as insect mortality at 6.32 mg/L of active ingredient measured 72 hr post compound dose; assay type: functional
Myzus persicae [21] = test: Insecticidal activity against Myzus persicae (green peach aphid) first nymphal stages grown on compound pre-treated mustard leaves assessed as insect mortality measured 72 hr post compound dose; assay type: functional
Bemisia tabaci [22] = test: Insecticidal activity against adult Bemisia tabaci biotype B (sweet potato whitefly) reared on compound pre-treated cotton seedlings assessed as insect mortality under out door conditions at 30 mg/L of active ingredient measured after 1 days post dose; assay type: functional
Spodoptera frugiperda [23] = test: Insecticidal activity against Spodoptera frugiperda (fall armyworm) fed with compound pre-treated sweet corn foliage 3 hr after compound application assessed as induction of mortality on day 0 post compound application; assay type: functional
Spodoptera frugiperda [24] = test: Insecticidal activity against Spodoptera frugiperda (fall armyworm) fed with compound pre-treated sweet corn foliage 3 hr after compound application assessed as induction of mortality on day 1 and 2 post compound application; assay type: functional

Sequence of AChE2 (Bemisia tabaci) (B3SST5 as listed by the source): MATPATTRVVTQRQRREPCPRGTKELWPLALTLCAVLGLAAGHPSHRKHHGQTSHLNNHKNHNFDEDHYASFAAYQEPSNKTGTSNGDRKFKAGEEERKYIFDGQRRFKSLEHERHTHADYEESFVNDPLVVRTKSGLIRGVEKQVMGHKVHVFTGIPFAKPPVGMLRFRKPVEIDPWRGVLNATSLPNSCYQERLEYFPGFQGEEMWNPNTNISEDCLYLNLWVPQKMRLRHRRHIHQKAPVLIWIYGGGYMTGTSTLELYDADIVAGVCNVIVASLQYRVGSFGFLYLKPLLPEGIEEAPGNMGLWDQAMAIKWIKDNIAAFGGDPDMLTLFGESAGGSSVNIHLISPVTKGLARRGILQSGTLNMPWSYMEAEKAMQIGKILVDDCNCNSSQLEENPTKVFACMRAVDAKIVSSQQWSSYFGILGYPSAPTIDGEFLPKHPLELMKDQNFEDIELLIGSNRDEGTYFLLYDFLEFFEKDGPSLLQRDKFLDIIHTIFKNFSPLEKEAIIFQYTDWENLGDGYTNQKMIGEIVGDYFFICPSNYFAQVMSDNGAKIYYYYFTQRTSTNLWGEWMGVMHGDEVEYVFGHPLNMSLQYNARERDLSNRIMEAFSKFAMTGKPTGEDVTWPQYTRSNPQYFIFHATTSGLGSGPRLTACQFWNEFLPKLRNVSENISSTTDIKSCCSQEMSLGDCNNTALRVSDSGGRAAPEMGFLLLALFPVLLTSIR

CC(F)c1ncnc(NCCc2ccc(OC(F)(F)F)cc2)c1Cl (configuration not stated) [FLUFENERIM]
mortality (Bemisia tabaci [1]): 94%
mortality (Bemisia tabaci [2]): 97%
LC50 (Bemisia tabaci [3]): 2.38 mgAi/L
LC90 (Bemisia tabaci [3]): 6.32 mgAi/L
Activity (Bemisia tabaci [4]): inactive
LC50 (Bemisia tabaci [5]): 0.41 mgAi/L
LC90 (Bemisia tabaci [5]): 2.4 mgAi/L
LC50 (Spodoptera littoralis [6]): 2.38 mgAi/L
mortality (Spodoptera littoralis [7]): 80%
inhibition (AChE2 (Bemisia tabaci)): Active
mortality (Spodoptera littoralis [8]): 90%
mortality (Bemisia tabaci [9]): 30%
inhibition (Bemisia tabaci [10]): Active
mortality (Spodoptera littoralis [11]): >80%
LC50 (Bemisia tabaci [12]): 0.35 mgAi/L
LC90 (Bemisia tabaci [12]): 1.24 mgAi/L
inhibition (Bemisia tabaci [13]): Active
mortality (Myzus persicae [14]): 90%
mortality (Spodoptera littoralis [15]): 28%
mortality (Bemisia tabaci [16]): 80%
inhibition (Bemisia tabaci [17]): Active
LC50 (Myzus persicae [18]): 0.31 mgAi/L
LC90 (Myzus persicae [18]): 1.22 mgAi/L
mortality (Spodoptera littoralis [19]): 55%
mortality (Spodoptera littoralis [20]): 90%
LC50 (Myzus persicae [21]): 0.39 mgAi/L
LC90 (Myzus persicae [21]): 1.12 mgAi/L
mortality (Bemisia tabaci [22]): 90%

CNC(=O)ON=C(C)SC [METHOMYL]
mortality (Bemisia tabaci [1]): 10%
mortality (Spodoptera frugiperda [23]): 50%
mortality (Spodoptera littoralis [8]): 6%
mortality (Spodoptera frugiperda [24]): 5%
